In US7888042B2, “Methods for identifying insulin mimetics” (Ohio University, priority 2005, dated 2011):

How the values were obtained:
PI-3 kinase = PI-3 kinase activity, radioactive TLC method; assay type: cell-based; conditions: CHO-IR cells
Experimental: (§1) (A) Glucose transport was measured by determining [^3H]-2-deoxyglucose uptake stimulated by either insulin or α-PGG in 3T3-L1 cells in the presence or absence of HNMPA-(AM)3, an inhibitor of IR tyrosine kinase activity (24); wortmannin, an inhibitor of PI 3-kinase (25), or cytochalasin B, an inhibitor of GLUT4 (26), (n=4, mean±SD). (B) Cells were induced by 20 or 40 μM α-PGG or 100 nM insulin for 15 min. Cell lysates were separated by PAGE and analyzed for phosphorylation of IR (in CHO-IR cells) or Akt (in adipocytes) using antibodies specific to the target proteins. (C) Cells were treated with α-PGG and insulin in a fashion similar to (B) and assayed for their respective PI-3 kinase activity with a radioactive TLC method (27). (D) In similar experiments, intact cells were analyzed by confocal microscopy for translocation of GLUT4 using anti-GLUT4 antibodies.
(§2) Protein phosphorylation/activation and GLUT4 translocation. To investigate signal transduction induced by α-PGG, proteins from 3T3-L1 adipocytes or CHO-IR cells (23), which were treated with α-PGG or insulin for 15 min, were isolated, separated by PAGE, blotted on nylon membranes, and analyzed by Western blotting with antibodies against either IR or Akt. […]

insulin = insulin (Bos taurus, UniProt P01317); experiment: Binding of α-PGG to insulin
GLUT4 = GLUT4 translocation, confocal microscopy; assay type: cell-based; conditions: adipocytes, 37° C., 15 min
Experimental: as §1, §2

3T3-L1 adipocytes = experiment: Glucose uptake assay in 3T3-L1 adipocytes; assay type: cell-based
Experimental: Chemical synthesis yields both the α- and β-anomers of PGG. (B) Glucose transport stimulatory activity (13, 14) of PGG was assessed by incubating adipocytes in 6-well plates with insulin or PGG for 15 min followed by the addition of [^3H]-2-deoxy-D-glucose for 10 min before quantifying uptake (13, n=3, mean±SD, Two way-ANOVA, * P<0.05; ** P<0.01). α-PGG (●); β-PGG (□); insulin (∘). (C) Glucose transport induced by insulin in the presence of α-PGG. One […] of insulin was added to adipocytes in the presence of increasing amounts of α-PGG. After induction, radioactive glucose was added, and the glucose taken up by the cells was counted.
Reagents, compound synthesis, and glucose uptake assay. Bovine insulin was purchased from Sigma. PGG, in an approximate 1:1 mixture of α- and β-PGG, was synthesized from glucose in the non-radioactive form as described (22). The identity of the compounds was confirmed by MS and NMR. The compounds were dissolved in double distilled water (ddH2O), filter sterilized, and stored as a 10 mM aqueous stock solution at −20° C. The stock solutions were diluted to final concentrations with sterile ddH2O. Glucose uptake assays in 3T3-L1 adipocytes induced by PGG were performed as described (13).

IR = IR phosphorylation, Western blot; assay type: cell-based, Chinese hamster; conditions: CHO-IR cells, 20 or 40 μM, 15 min
Experimental: as §1, §2

Chain of insulin (P01317 25-54 limits assumed): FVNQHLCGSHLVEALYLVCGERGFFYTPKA

For O=C(OC[C@H]1O[C@H](OC(=O)c2cc(O)c(O)c(O)c2)[C@H](OC(=O)c2cc(O)c(O)c(O)c2)[C@@H](OC(=O)c2cc(O)c(O)c(O)c2)[C@@H]1OC(=O)c1cc(O)c(O)c(O)c1)c1cc(O)c(O)c(O)c1 [α-PGG, alpha 1,2,3,4,6-penta-O-galloyl-D-Glucopyranose], the PI-3 kinase activity (PI-3 kinase) was “activates PI-3 kinase”, the binding to insulin (insulin) was “did not bind to insulin” and the GLUT4 translocation (GLUT4) was “translocated to the plasma membrane”. For the same molecule, the “induction of glucose transport” value (3T3-L1 adipocytes; 3T3-L1 adipocytes, [3H]-2-deoxy-D-glucose uptake, 15 min incubation) was “induced glucose transport in adipocytes in a dose-dependent manner”, the “glucose transport activity, more active than β-PGG” value (3T3-L1 adipocytes; 15-30 μM concentration range, P<0.05 at 15 μM, P<0.01 at 30 μM) was 10-20% and the EC50 (3T3-L1 adipocytes; Mus musculus, 3T3-L1, estimated, printed 13 μM±2 μM, read-out: EC50 for glucose transport activity) was 13 µM. The “glucose transport induced by insulin on addition of α-PGG” value (3T3-L1 adipocytes; insulin plus increasing amounts of α-PGG) was “reduced the glucose transport activity induced by insulin towards that of α-PGG” and the “phosphorylation of the IR” value (IR) was “induces the phosphorylation of the IR”.
